Patent US7501281B2, “Compositions, methods and kits related to thrombin, Notch signaling and stamatogenesis and growth of stem cells” (Maine Medical Center Research Institute, priority 2003, dated 2009)
Marks after values point to notes of the source that are not given here.

B1: sDl1: soluble non-transmembrane form of the Notch ligand Delta1 (protein)
chain: QVWSSGVFELKLQEFVNKKGLLGNRNCCRGGAGPPPCACRTFFRVCLKHYQASVSPEPPCTYGSAVTPVLGVDSFSLPDGGGADSAFSNPIRFPFGFTWPGTFSLIIEALHTDSPDDLATENPERLISRLATQRHLTVGEEWSQDLHSSGRTDLKYSYRFVCDEHYYGEGCSVFCRPRDDAFGHFTCGERGEKVCNPGWKGPYCTEPICLPGCDEQHGFCDKPGECKCRVGWQGRYCDECIRYPGCLHGTCQQPWQCNCQEGWGGLFCNQDLNYCTHHKPCKNGATCTNTGQGSYTCSCRPGYTGATCELGIDECDPSPCKNGGSCTDLENSYSCTCPPGFYGKICELSAMTCADGPCFNGGRCSDSPDGGYSCRCPVGYSGFNCEKKIDYCSSSPCSNGAKCVDLGDAYLCRCQAGFSGRHCDDNVDDCASSPCANGGTCRDGVNDFSCTCPPGYTGRNCSAPVSRCEHAPCHNGATCHERGHRYVCECARGYGGPNCQFLLPELPPGPAVVDLTEKLEGQGGPFPW
modifications: left off: small tags and cut ends
notes: soluble non-transmembrane form of the Notch ligand Delta1

Tests used:
NCSC populations = test: GFAP immunoreactivity as onset of glial-specific clonogenic differentiation; format: cell-based, murine
Method: FIG. 12A depicts an RT-PCR analysis of FGF1.A mRNA expression. Briefly, populations of murine NCSC were treated for 48 hours in Morrison media supplemented with either 7.5 nM sJ1, 5.0 nM sDl1, 10 μg/ml of α-thrombin or 5 μg/ml TRAP, and the steady-state levels of the FGF1.A mRNA were measured using RT-PCR as described elsewhere herein. […] Clonogenic differentiation assays of murine NCSC populations were assessed by maintaining the cells in Morrison media supplemented with increasing concentrations of either sJ1 or sDl1. […] Clonogenic differentiation assays of NCSC populations was assessed by maintaining the cells in Morrison media supplemented with either 7.5 nM sJ1 (▪-▪) or 5 nM sDl1 (▴-▴). The onset of gliogenic differentiation was determined by GFAP immunohistochemistry. […]
Since sJ1 enabled the retention of NCSC neurogenic potential over a 7 day period of exposure (Table 1), glial fibrillary acidic protein (GFAP) immunoreactivity was utilized as a measure of the onset of glial-specific clonogenic differentiation (Morrison et al., 1999, Cell 96:737-749; Stemple et al., 1992, Cell 71:973-985). […] As previously reported (Morrison et al., 2000, Cell 101:499-510), after 48 hours of exposure to sDl1, GFAP immunoreactive cells were detected in NCSC populations (FIG. 12C). […]

mouse NSCS populations = test: Clonogenic differentiation assay of NCSC, pre-incubation with Notch ligand then BMP2 challenge; format: cell-based
Method: Clonogenic assays were performed as described (Stemple et al., 1992, Cell 71:973-985). Briefly, populations of murine NCSC were plated at a clonal density and maintained for a maximum of 14 days in Morrison media supplemented with 15% chick embryo extract (Morrison et al., 1999, Cell 96:737-749). The resulting clones were fixed in an acetic acid:ethanol solution (2:1) and stained with antibodies against peripherin (Chemicon) to detect neurons, smooth muscle actin (Sigma) to detect myofibroblasts, and GFAP (Chemicon) to detect Schwann cells. Clones were scored based on the appearance of just one phenotypic representative. The number and percentage of clones containing neurons only (N), Schwann cells only (S), myofibroblasts only (M), N+S, N+M, N+S+M, and S+M were scored at day 14 unless otherwise stated. The production of each representative phenotype in each individual clone was also scored to complement the clonal population assay.
NCSC Retain Neurogenic capacity in the presence of sJ1. A clonogenic differentiation assay was performed using mouse NSCS populations as described previously (Kubu et al., 2002, Dev. Biol. 244:199-214; Stemple et al., 1992, Cell 71:973-985). The cells were incubated in Stemple media (Stemple et al., 1992) with or without 5 nM sDl1 or 7.5 nM sJ I for the time periods set forth in Table 1. After the initial incubation period, cells were washed and neuronal differentiation was challenged in the presence of 1 ng/ml BMP2 for an additional seven days. The resulting clones were fixed and stained for detection of neural crest markers. The data disclosed in Table 1 is presented as the percentage of glial-only, neuron-only, and neuron colonies containing either smooth muscle or glial markers as the mean±standard deviation (SD) of three experiments originating from three independent cell isolations. Note the retention of neurogenic differentiation capacity in sJ1-treated cells (*=p<0.01) compared with the sDl1-treated cells.

[1] = system: Notch-dependent CSL1 activity in full-length Jagged1 NIH 3T3 cell transfectants; test: Dual Luciferase Reporter Assay of CSL1-dependent transcription; format: cell-based, murine
[2] = 24 hrs with 5 nM sDl1 or 7.5 nM sJ1, then 1 ng/ml BMP2 for seven days, percentage of colonies, mean±SD
[3] = 72 hrs with 7.5 nM sJ1, then 1 ng/ml BMP2 for seven days
[4] = 120 hrs with 7.5 nM sJ1, then 1 ng/ml BMP2 for seven days
[5] = 168 hrs with 7.5 nM sJ1, then 1 ng/ml BMP2 for seven days

| Molecule | percentage of the colony expressing the glial-specific protein GFAP (NCSC populations; day 7) [%] | Glial-Only (mouse NSCS populations; [2]) [%] | Neuron-Containing (mouse NSCS populations; [2]) | Neuron-Only (mouse NSCS populations; [2]) | Glial-Only (mouse NSCS populations; [3]) [%*] | Neuron-Containing (mouse NSCS populations; [3]) [%*] | Neuron-Only (mouse NSCS populations; [3]) [%*] | Glial-Only (mouse NSCS populations; [4]) [%*] | Neuron-Containing (mouse NSCS populations; [4]) [%*] | Neuron-Only (mouse NSCS populations; [4]) [%*] | Glial-Only (mouse NSCS populations; [5]) [%*] | Neuron-Containing (mouse NSCS populations; [5]) [%] | Neuron-Only (mouse NSCS populations; [5]) [%*] | CSL1-dependent transcription, of the control level ([1]; sJ1 expression (sJ1 NIH 3T3 cell transfectants)) | effect on Notch-dependent CSL1 activity [1] | CSL1-dependent transcription, of the control level ([1]; maximal attenuation by thrombin) | time of exposure at which GFAP immunoreactive cells were detected (NCSC populations) [h] |
| --- | --- | --- | --- | --- | --- | --- | --- | --- | --- | --- | --- | --- | --- | --- | --- | --- | --- |
| sJ1: Soluble Jagged1, amino acid residues from about 1 to 1067 (SEQ ID NO:3) of full-length Jagged1 | 23±5 | 0 | 71.4 ± 6.2%* | 54.4 ± 8.4%* | 0.8 ± 1.4 | 74.8 ± 16.3 | 42.8 ± 6.6 | 5.82 ± 3.4 | 52.01 ± 14.1 | 13.43 ± 6.5 | 13.3 ± 4.5 | 35.03 ± 9.1 | 6.5 ± 1.3 | approximately 25% |  |  |  |
| Thrombin |  |  |  |  |  |  |  |  |  |  |  |  |  |  | reduce the level of Notch-dependent CSL1 activity in a dose-dependent manner | approximately 75% |  |
| B1 |  | 57.8 ± 9.9 | 7.0 ± 5.7% | 0% |  |  |  |  |  |  |  |  |  |  |  |  | 48 |
